Data reported in patent publication US20030224390A1, “Method of identifying conformation-sensitive binding peptides and uses thereof” (Karo Bio AB, priority 2000, published 2003).

Experiments:
Assay type in all cases: cell-based
androgen receptor [1] = molecular target: T1, androgen receptor (Homo sapiens, UniProt P10275); set-up: expressed in transfected cells
T1 sequence (P10275 1-920): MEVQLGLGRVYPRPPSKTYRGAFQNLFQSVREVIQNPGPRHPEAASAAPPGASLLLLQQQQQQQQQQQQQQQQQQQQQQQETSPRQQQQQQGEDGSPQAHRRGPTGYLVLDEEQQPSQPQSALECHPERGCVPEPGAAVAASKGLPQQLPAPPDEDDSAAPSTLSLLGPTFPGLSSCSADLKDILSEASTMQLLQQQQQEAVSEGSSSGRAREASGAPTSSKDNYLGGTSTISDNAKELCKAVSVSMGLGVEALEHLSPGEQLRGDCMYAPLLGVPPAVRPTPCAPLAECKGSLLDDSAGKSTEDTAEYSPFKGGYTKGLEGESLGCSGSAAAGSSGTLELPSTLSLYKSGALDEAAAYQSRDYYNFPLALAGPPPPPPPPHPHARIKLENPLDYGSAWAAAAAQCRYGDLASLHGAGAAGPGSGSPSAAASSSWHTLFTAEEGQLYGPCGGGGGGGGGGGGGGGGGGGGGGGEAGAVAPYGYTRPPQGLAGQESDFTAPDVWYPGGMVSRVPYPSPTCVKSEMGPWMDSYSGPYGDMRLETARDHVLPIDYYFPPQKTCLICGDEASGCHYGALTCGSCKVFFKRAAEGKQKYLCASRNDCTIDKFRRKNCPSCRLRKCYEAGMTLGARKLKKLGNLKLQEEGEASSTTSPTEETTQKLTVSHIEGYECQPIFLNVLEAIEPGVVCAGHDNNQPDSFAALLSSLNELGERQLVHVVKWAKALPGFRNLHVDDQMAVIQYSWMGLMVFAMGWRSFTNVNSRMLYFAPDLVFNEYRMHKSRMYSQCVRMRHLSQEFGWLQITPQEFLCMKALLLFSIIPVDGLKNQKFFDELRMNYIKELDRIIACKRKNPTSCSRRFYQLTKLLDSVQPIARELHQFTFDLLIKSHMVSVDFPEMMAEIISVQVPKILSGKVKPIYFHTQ
Excerpt: We used a mammalian two-hybrid system to determine specificities of the AR-binding peptides previously identified, through screening of the aforementioned yeast library, as ligand-dependent in their binding activity. Ligand was provided to the cells so the interaction could be observed. The human hepatoma cell line, Huh-7, was used as the recipient of two-hybrid vectors, pM and pVP16 (Clontech) (FIGS. 6A and 6B), containing fusions with peptide and AR, respectively. According to Clontech literature, the Clontech vectors pM and VP16 generate fusions of protein X with the GAL4 DNA-BD and fusions of protein Y with the VP16AD, in the Mammalian MM Two-Hybrid Assay Kit (#K1602-1). (Note: pM and VP16 contain unique cloning sites in the same order and reading frame as the DNA-BD and AD, respectively, vectors in the yeast […] Two-Hybrid Systems.) A third vector, pG5CAT, provides a CAT reporter gene under the control of a GAL4-responsive element and minimal promoter of the adenovirus E1b. The three vectors are cotransfected into any suitable mammalian host cell line by standard methods. The interaction between proteins X and Y is then assayed by measuring CAT gene expression by any standard method. In the absence of activation (i.e., no protein-protein interaction), the minimal E1b promoter will not express significant levels of CAT.
Briefly, cells are seeded in a 24-well culture plate to a density of 50-80% confluence in phenol red-free media containing charcoal-dextran stripped fetal bovine serum (10%). Following incubation overnight, cells are transfected with plasmids pM-peptide, pVP16-AR, pCMV-b-gal, and p5XGAL-Luc3 DNAs using lipofectamine 2000 (LifeTech) according to the manufacturer's protocol. Transfections are allowed to proceed for 6 hours and the transfection media is aspirated and replaced with recovery media for 18 hours. Following the recovery period, cells are treated with compound for 24 hours prior to cell harvesting. Cells are washed with PBS and then lysed using the lysis buffer from the Galacto-Light Plus β-galactosidase assay kit (Tropix). Assays for luciferase and β-galactosidase were performed as described by the manufacturer. Peptide/AR interactions are described in terms of the luciferase activity normalized for transfection efficiency using β-galactosidase activity (see FIG. 4A). Two types of useful information arose from these methods: 1) we generated a panel of useful peptide probes to analyze the conformational state of AR, and 2) we “fingerprinted” AR modulators with respect to AR conformation (FIG. 4B). […] FIG. 4B is the converse of 4A. It compares the ability of six ligands (DHT, MPA, CYP, RU486, FLUT and DHEAs to interact with AR in the presence of each of four peptides (D30, 5G11, B8H3 and […]). Thus, it is a “fingerprint” of each of the six ligands using a four peptide panel. (Note that “1269” and D30” refer to the same peptide.)

androgen receptor [2] = molecular target: T1, androgen receptor; set-up: expressed in transfected cells; remark: listed apart in the source
androgen receptor [3] = molecular target: T1, androgen receptor; assay: Yeast two-hybrid screening of unbiased X15 peptide library, ligand induced β-galactosidase activity (FIG. 3, Table 503); set-up: expressed in transfected cells; host or cells: Saccharomyces cerevisiae PJ69-4α; ligand induced β-galactosidase activity, No Lig / ligand induced β-galactosidase activity, DHT / ligand induced β-galactosidase activity, CPA / ligand induced β-galactosidase activity, RU / ligand induced β-galactosidase activity, Test / ligand induced β-galactosidase activity, MPA: unit not given here
Excerpt: Our library contained predominantly 15 random amino acid residues/peptide in order to identify motifs that might interact with nuclear receptor domains. If ligand is provided to the cells, one can screen for peptides that interact with the ligand-bound receptor. […] Included at the ends of the oligonucleotide were the synthetic restriction endonuclease cleavage sites, EcoRI or Mfe I (5′ end) and Sal I (3′ end). Oligonucleotides were annealed, then cleaved with excess restriction endonuclease and purified on agarose gels. The purified set of oligonucleotides was subcloned as an in-frame carboxy-terminal fusion to a Gal4 DNA binding domain (plasmid vector pMA424 derivative). […] The transformation mix was divided and grown on plates of selective media containing ligand and 25 mM 3-aminotriazole at 30° C. until colonies appeared in 3-7 days. […] Dihydrotestosterone (DHT) and medroxyprogesterone (MPA) were added to the media at 100 nM to identify peptides that interact with the receptor in the presence of ligand. After colonies appeared they were picked and dispersed into individual wells of a 96-well plate containing rich media (YPD).
To determine ligand dependence, two microliter aliquots were removed from the cell suspension, and arrayed and spotted onto each of two rectangular agar plates, one with 100 nM ligand and one without ligand. Growth was monitored daily.
A secondary test of ligand dependent activation was performed using the integrated GAL4-driven lacZ gene. Cell suspensions of the initial positive clones were diluted 20-fold into 20 microliters of rich media in a microplate and grown overnight at 30° C. in the presence and absence of ligand. Microplates were centrifuged for 5 minutes at 3000 rpm in a swinging table top centrifuge to pellet the yeast cells, and the overlying media was aspirated. […] An OD650 density determination was made to normalize the β-galactosidase activity. β-galactosidase activity was monitored following the addition of buffer containing chlorophenol red-β-galactopyranoside (CPRG) (Boehringer Mannheim) substrate at a final concentration of 0.5 mM. […] The maximum slope value of this measurement was normalized to cell density from the initial OD650 value, and the relative ligand dependence of β-galactosidase was determined by comparing the values plus and minus ligand.
In FIG. 3, all of these ligands were tested. The plasmids from true positives were extracted using standard yeast extraction protocols and re-transformed to verify the positive phenotype.

For EFQQCMCAEVKSWLGGSLDLQPS* [B8E9], the “luciferase normalized to β-galactosidase, CYP.” value (androgen receptor [1]) was 16.02, the “luciferase normalized to β-galactosidase, DHT” value (androgen receptor [1]; mammalian two-hybrid, Huh-7 cells, ligand DHT) was 19.64 and the “luciferase normalized to β-galactosidase, MPA” value (androgen receptor [1]; mammalian two-hybrid, Huh-7 cells, ligand MPA) was 18.51. The “luciferase normalized to β-galactosidase, RU486” value (androgen receptor [1]; mammalian two-hybrid, Huh-7 cells, ligand RU486) was 10.1916, the “luciferase normalized to β-galactosidase, no compound” value (androgen receptor [1]; mammalian two-hybrid, Huh-7 cells, no compound) was 0.2091 and the “Binding to the androgen receptor in the presence of both agonists and known antagonists” value (androgen receptor [2]; ligand present) was “displays binding”. For the same substance, the “Binding to the androgen receptor in the absence of ligand” value (androgen receptor [2]; no ligand) was “not”, the Fold induction (androgen receptor [3]; untitled table before Table 503, values match DHT / No Lig of Table 503) was 4 and the “ligand induced β-galactosidase activity, CPA” value (androgen receptor [3]; yeast two-hybrid, ligand CPA) was 0.5635. The “ligand induced β-galactosidase activity, DHT” value (androgen receptor [3]; yeast two-hybrid, ligand DHT) was 1.75, the “ligand induced β-galactosidase activity, RU” value (androgen receptor [3]; yeast two-hybrid, ligand RU) was 0.8 and the “ligand induced β-galactosidase activity, No Lig” value (androgen receptor [3]; yeast two-hybrid, no ligand) was 0.4989.
